Test results from US20250177338A1 (URIACH ITALY S.R.L., priority 2022, published 2025).

Experiments:
[1] = system: HepG2; test: Hepatic absorption test; type: in vitro ADME, Human; conditions: NAC 12 mM, VitD 100 nM, G 5 mM, LA 50 μM
Protocol: Human epithelial cells (HepG2) were purchased from ATCC, and cultured in DMEM supplemented with 10% FBS, L-glutamine 2 mM and 1% penicillin-streptomycin, at 37° C., 5% CO2.

[2] = system: ERK/MAPK; conditions: liver level; NAC 12 mM, VitD 100 nM, G 5 mM, LA 50 μM
Protocol: Human epithelial cells (HepG2) were purchased from ATCC, and cultured in DMEM supplemented with 10% FBS, L-glutamine 2 mM and 1% penicillin-streptomycin, at 37° C., 5% CO2. […] ERK/MAPK activity was measured by InstantOne™ ELISA (Thermo Fisher) on cell lysates following the manufacturer's instructions. The strips were measured by a spectrometer (VICTOR X4, multiwell plate reader) at 450 nm. Results were expressed as mean absorbance (%) compared with control.

[3] = system: GTL-16 cell line; conditions: pre-digested model, 2, 3, 4 and 6 hours; NAC 12 mM, VitD 100 nM, G 5 mM
Protocol: The GTL-16 cell line, donated by the Laboratory of Histology, University of Eastern Piedmont (Italy), is a clonal line derived from a poorly differentiated gastric carcinoma cell line widely used as a model of gastric epithelial cells. Cells were cultured in Dulbecco's Modified Eagle medium (DMEM, Merck Life Science, Rome, Italy) supplemented with 10% fetal bovine serum (Fetal Bovine Serum, FBS), 1% penicillin-streptomycin, in an incubator at 37° C., 5% CO2. 1×10^4 cells were used to explore cell viability by MTT.
At the end of stimulation, cells were incubated with 1% MTT dye for 2 h at 37° C. in an incubator, 5% CO2 and 95% humidity, and then purple formazan crystals were dissolved in an equal volume of MTT solubilization solution.

[4] = system: NSC-34/IFRS1 co-culture; test: Mitochondrial metabolism at Peripheral Nervous System level; type: cell-based, rat; conditions: added to NAC 12 mM, VitD 100 nM, G 5 mM
Protocol: In order to recreate a peripheral nervous system in vitro, a myelinating co-culture system was used with an NSC-34 motor neuron-like cell line and an IFRS1 adult rat Schwann cell line according to a protocol reported in the literature. IFRS1 cells were seeded on 100-mm plastic discs (Greiner Bio-One GmbH, Frickenhausen, Germany, 664-160-013) at an approximate density of 2×10^4/cm^2 and maintained in DMEM containing 5% FBS, recombinant human eregulin-β (EMD Millipore, Billerica, MA, USA) 20 ng/mL, forskolin (Sigma, St. Louis, MO, USA) 5 μM and antifungal antibiotic solution (penicillin 100 U/mL, streptomycin 100 μg/mL and amphotericin 250 ng/mL; Sigma). NSC-34 cells were seeded on 100-mm plastic discs at an approximate density of 1×10^4/cm^2 and maintained in DMEM containing antibiotic antifungal solution and 5% FBS. At semi-confluence, cells were detached from the discs using 0.05% trypsin/EDTA 0.53 mM solution, suspended in DMEM/F12 Ham containing 5% FBS in a 50 mL polypropylene conical tube, and reseeded on Aclar fluorocarbon coverslips coated with poly-L-lysine/laminine, 12-well culture plates coated with type I collagen, and 2-well glass chamber slides coated with type I collagen at an approximate density of 2×10^3/cm^2. […]

Row | hepatic absorption [1] | Compound | ERK activity [2] | cell viability [3] | mitochondrial activity [4]
1 | further increases hepatic absorption | N[C@@H](CCC(=O)N[C@@H](CS)C(=O)NCC(=O)O)C(=O)O [glutathione, (2S)-2-amino-5-[[(2R)-1-(carboxymethylamino)-1-oxo-3-sulfanylpropan-2-yl]amino]-5-oxopentanoic acid] | further enhances the conservation of these biological activities | contributes to increased cell viability | 
2 |  | Vitamin D [VitD] |  |  | contributes to increased mitochondrial activity
